Patent US20240158393A1, “PYRIDONE COMPOUNDS AND METHODS OF USE” (Exelixis, Inc., priority 2021, published 2024)
Counter-ions that a name gives are not always drawn.

Experiments:
[1] = target: T1, Human KDR (Homo sapiens, UniProt P35968); assay: Human KDR kinase assay (33P radiometric / HTRF KinEase); format: biochemical; conditions: protocols of Examples B-1 and/or B-2
T1 construct: Human KDR (residues K790-V1356, 55 nM); purchased Eurofins Pharma Discovery Services UK Limited (KinaseProfiler, B-1) and/or CarnaBio (B-2)
T1 sequence (P35968 790-1356): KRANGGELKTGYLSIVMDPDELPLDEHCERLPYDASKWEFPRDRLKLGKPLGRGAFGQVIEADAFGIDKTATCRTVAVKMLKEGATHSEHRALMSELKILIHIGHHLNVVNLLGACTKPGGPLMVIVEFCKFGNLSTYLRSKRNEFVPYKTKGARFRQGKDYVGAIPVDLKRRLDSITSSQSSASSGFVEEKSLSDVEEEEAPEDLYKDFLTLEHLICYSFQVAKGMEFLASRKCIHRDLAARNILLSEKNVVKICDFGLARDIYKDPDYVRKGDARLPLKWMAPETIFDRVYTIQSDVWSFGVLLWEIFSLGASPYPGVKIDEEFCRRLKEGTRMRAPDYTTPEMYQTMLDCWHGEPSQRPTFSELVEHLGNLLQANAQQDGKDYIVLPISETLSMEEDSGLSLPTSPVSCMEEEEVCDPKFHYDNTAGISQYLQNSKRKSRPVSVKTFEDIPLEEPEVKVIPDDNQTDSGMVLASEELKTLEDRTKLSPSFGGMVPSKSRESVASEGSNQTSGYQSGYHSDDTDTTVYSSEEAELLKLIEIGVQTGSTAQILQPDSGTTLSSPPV
Procedure: (§1) Kinase activity and compound inhibition were investigated using the ^33P-Phosphoryl transfer radiometric kinase assay, performed using the KinaseProfiler™ service of Eurofins Pharma Discovery Services UK Limited. Dose-response experiments were performed using nine compound concentrations in a 96-well microtiter plate. For each assay, all compounds were prepared to a 50× final assay concentration (50 μM) in 100% DMSO, then diluted in a half-log series, with the final top concentration at 1 μM. This working stock of the compound was added to the assay well as the first component in the reaction, followed by the remaining components as detailed in the following assay protocols below. The positive control wells (100% kinase activity) contain all components of the reaction including 2% DMSO (control for solvent effects), except the compound of interest. Blank wells contain all components of the reaction, with the reference inhibitor, staurosporine. This reference compound was used to abolish kinase activity and generated the 0% kinase activity base-line. IC50 values were calculated by nonlinear regression analysis using the sigmoidal dose-response (variable slope) curve fit on XLFit version 5.3 (ID Business Solutions).
(§2) Kinase activity and compound inhibition were also investigated using the HTRF® KinEase assay (Cisbio Cat #62TKOPEB) per manufacturer's instructions. In short, compounds were delivered in 300 nL volumes at 10 different concentrations in DMSO (3% final) to empty 384-well assay plates (Corning cat #3824). A mixture of enzyme, 1 μM biotinylated peptide substrate, and buffer in 10 μL volume was added. The assay was started upon the addition of ATP (at Km). The 10 μL reaction was incubated at room temperature. The reaction was stopped upon the addition of detection buffer containing streptavidin-XL665 (5 μL) and TK antibody-Eu3+(5 μL). After a 60 min incubation at room temperature, the fluorescence at 665 nm and 620 nm was read on an Envision microplate reader (Perkin Elmer).
(§3) Kinase activity normalized to DMSO (100% activity) and reference compound at 1 μM and (0% activity) was calculated using the fluorescence ratio […]. IC50 values were calculated by nonlinear regression analysis using a 4-parameter logistic curve fit in ActivityBase XE (IDBS).
(§4) Example B-1: Human KDR (residues K790-V1356, 55 nM) was incubated with 8 mM MOPS pH 7.0, 0.2 mM EDTA, 0.33 mg/mL myelin basic protein, 10 mM magnesium acetate, and 10 μM [γ-^33P-ATP]. The reaction was initiated by the addition of the Mg/ATP mix. After incubation for 40 minutes at room temperature, the reaction was stopped by the addition of phosphoric acid to a concentration of 0.5%. A reaction aliquot of 10 μL was then spotted onto a P30 filtermat and washed four times for 4 minutes in 0.425% phosphoric acid and once in methanol prior to drying and scintillation counting. Incorporated ^33P was measured using the Wallac Microbeta scintillation counter (Perkin Elmer).
Example B-2: Human KDR (residues 790-1356; CarnaBio, 0.1 ng/well) was also incubated with enzymatic buffer (Cisbio) supplemented with 5 mM MgCl2, 1 mM MnCl2, and 1 mM DTT. The mixture was added to the pre-plated compounds. The reaction was initiated upon addition of ATP at Km (4.0 μM). The reaction was incubated at room temperature for 40 min and stopped upon the addition of SA-XL665 and TK-antibody both diluted in EDTA-containing kinase detection buffer (Cisbio). The kinase activity was calculated as stated above and the IC50 values were reported.

[2] = target: T2, Human Axl (Homo sapiens, UniProt P30530); assay: Human AXL kinase assay (33P radiometric / HTRF KinEase); format: biochemical; conditions: protocols of Examples A-1 and/or A-2
T2 construct: Human AXL (residues 464-885)
T2 sequence (P30530 1-894 Q764R): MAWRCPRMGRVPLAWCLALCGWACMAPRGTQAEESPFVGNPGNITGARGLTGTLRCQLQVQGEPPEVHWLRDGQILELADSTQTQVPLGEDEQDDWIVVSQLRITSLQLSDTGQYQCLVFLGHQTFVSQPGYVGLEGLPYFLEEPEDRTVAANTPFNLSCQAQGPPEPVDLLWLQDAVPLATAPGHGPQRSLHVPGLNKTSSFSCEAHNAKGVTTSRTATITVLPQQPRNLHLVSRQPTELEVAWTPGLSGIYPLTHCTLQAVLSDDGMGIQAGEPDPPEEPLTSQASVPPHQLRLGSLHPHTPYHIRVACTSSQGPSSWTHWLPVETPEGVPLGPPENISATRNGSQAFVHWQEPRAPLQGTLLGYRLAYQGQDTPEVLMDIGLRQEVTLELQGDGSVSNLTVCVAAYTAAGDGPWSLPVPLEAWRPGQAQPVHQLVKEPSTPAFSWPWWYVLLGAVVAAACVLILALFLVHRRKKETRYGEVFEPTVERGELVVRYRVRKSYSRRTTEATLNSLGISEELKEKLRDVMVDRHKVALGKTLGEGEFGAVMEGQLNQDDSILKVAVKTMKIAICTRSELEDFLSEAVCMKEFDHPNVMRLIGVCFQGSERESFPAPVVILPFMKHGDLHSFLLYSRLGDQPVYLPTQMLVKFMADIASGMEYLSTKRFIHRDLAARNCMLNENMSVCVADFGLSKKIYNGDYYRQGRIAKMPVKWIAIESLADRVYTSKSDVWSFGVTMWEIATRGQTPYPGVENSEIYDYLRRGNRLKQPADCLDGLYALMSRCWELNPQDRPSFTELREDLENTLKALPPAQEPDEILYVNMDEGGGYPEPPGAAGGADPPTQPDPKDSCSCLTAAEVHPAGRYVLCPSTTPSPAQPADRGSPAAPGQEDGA
Procedure: as §1, §2, §3
as §4, with “A-1:” for “B-1:”, “Axl” for “KDR”, “H473-A894 with Q764R, 161” for “K790-V1356, 55”, “250 μM KKSRGDYMTMQIG (SEQ ID NO:1),” for “0.33 mg/mL myelin basic protein,”, “acetate” for “acetate,”
Example A-2: Human AXL (residues 464-885; CarnaBio, 1 ng/well) was also incubated with enzymatic buffer (Cisbio) supplemented with 5 mM MgCl2, 1 mM DTT, and Supplemental Enzymatic Buffer (SEB; Cisbio). The mixture was added to the pre-plated compounds. The reaction was initiated upon addition of ATP at Km (1.0 μM). The reaction was incubated at room temperature for 50 min and stopped upon the addition of SA-XL665 and TK-antibody both diluted in EDTA-containing kinase detection buffer (Cisbio). The kinase activity was calculated as stated above and the IC50 values were reported.

Row | Compound | IC50 [1] | IC50 [2]
1 | COc1cc2nccc(Oc3ccc(NC(=O)c4cn(C)c(C)c(C5=CCCC5)c4=O)cc3F)c2nc1OC [Compound 1, 5-(Cyclopenten-1-yl)-N-[4-[(6,7-dimethoxy-1,5-naphthyridin-4-yl)oxy]-3-fluorophenyl]-1,6-dimethyl-4-oxopyridine-3-carboxamide] | ≤ 100 nM | ≤ 100 nM
2 | COc1cc2nccc(Oc3ccc(NC(=O)c4c(C)nc(C)c(C5=CCCC5)c4O)cc3F)c2nc1OC [Compound 1-2, 5-(Cyclopenten-1-yl)-N-[4-[(6,7-dimethoxy-1,5-naphthyridin-4-yl)oxy]-3-fluorophenyl]-4-hydroxy-2,6-dimethylpyridine-3-carboxamide hydrochloride] | ≤ 100 nM | ≤ 100 nM
3 | COc1cc2nccc(Oc3ccc(NC(=O)c4cnc(C)c(C5=CCOCC5)c4O)cc3F)c2nc1OC [Compound 1-3, 5-(3,6-Dihydro-2H-pyran-4-yl)-N-[4-[(6,7-dimethoxy-1,5-naphthyridin-4-yl)oxy]-3-fluorophenyl]-4-hydroxy-6-methylpyridine-3-carboxamide] | ≤ 100 nM | ≤ 100 nM
4 | COc1cnc2c(Oc3ccc(NC(=O)c4cnc(C)c(C5=CCOCC5)c4O)cc3F)ccnc2c1 [Compound 1-4, 5-(3,6-Dihydro-2H-pyran-4-yl)-N-[3-fluoro-4-[(7-methoxy-1,5-naphthyridin-4-yl)oxy]phenyl]-4-hydroxy-6-methylpyridine-3-carboxamide] | ≤ 100 nM | ≤ 100 nM
5 | COc1ccc2nccc(Oc3ccc(NC(=O)c4cnc(C)c(C5=CCOCC5)c4O)cc3F)c2n1 [Compound 1-5, 5-(3,6-Dihydro-2H-pyran-4-yl)-N-[3-fluoro-4-[(6-methoxy-1,5-naphthyridin-4-yl)oxy]phenyl]-4-hydroxy-6-methylpyridine-3-carboxamide] | ≤ 100 nM | ≤ 100 nM
6 | COc1ccc2nccc(Oc3ccc(NC(=O)c4cnc(C)c(C5=CCCCC5)c4O)cc3F)c2n1 [Compound 1-6, 5-(Cyclohexen-1-yl)-N-[3-fluoro-4-[(6-methoxy-1,5-naphthyridin-4-yl)oxy]phenyl]-4-hydroxy-6-methylpyridine-3-carboxamide] | 100 to 300 nM | ≤ 100 nM
7 | COc1ccc2nccc(Oc3ccc(NC(=O)c4cnc(C)c(C5=CCCC5)c4O)cc3F)c2n1 [Compound 1-7, 5-(Cyclopenten-1-yl)-N-[3-fluoro-4-[(6-methoxy-1,5-naphthyridin-4-yl)oxy]phenyl]-4-hydroxy-6-methylpyridine-3-carboxamide] | ≤ 100 nM | ≤ 100 nM
8 | COc1cnc2c(Oc3ccc(NC(=O)c4cnc(C)c(C5=CCCC5)c4O)cc3F)ccnc2c1 [Compound 1-9, 5-(Cyclopenten-1-yl)-N-[3-fluoro-4-[(7-methoxy-1,5-naphthyridin-4-yl)oxy]phenyl]-4-hydroxy-6-methylpyridine-3-carboxamide] | ≤ 100 nM | ≤ 100 nM
9 | COc1cc2nccc(Oc3ccc(NC(=O)c4cn(C)c(C)c(C5CCCC5)c4=O)cc3F)c2nc1OC [Compound 2, 5-Cyclopentyl-N-[4-[(6,7-dimethoxy-1,5-naphthyridin-4-yl)oxy]-3-fluorophenyl]-1,6-dimethyl-4-oxopyridine-3-carboxamide] | ≤ 100 nM | ≤ 100 nM
10 | COc1cc2nccc(Oc3ccc(NC(=O)c4c(C)nc(C)c(C5=CCCCC5)c4O)cc3F)c2nc1OC [Compound 2-3, 5-(Cyclohexen-1-yl)-N-[4-[(6,7-dimethoxy-1,5-naphthyridin-4-yl)oxy]-3-fluorophenyl]-4-hydroxy-2,6-dimethylpyridine-3-carboxamide] | ≤ 100 nM | ≤ 100 nM
11 | C=C(C)c1c(C)nc(C)c(C(=O)Nc2cc(F)c(Oc3ccnc4cc(OC)c(OC)nc34)cc2F)c1O [Compound 6, N-[4-[(6,7-Dimethoxy-1,5-naphthyridin-4-yl)oxy]-2,5-difluorophenyl]-4-hydroxy-2,6-dimethyl-5-prop-1-en-2-ylpyridine-3-carboxamide] | ≤ 100 nM | ≤ 100 nM
12 | COc1cnc2c(Oc3ccc(NC(=O)c4cnc(C)c(C5=CCOCC5)c4O)cc3)ccnc2c1 [Compound 7, 5-(3,6-Dihydro-2H-pyran-4-yl)-4-hydroxy-N-[4-[(7-methoxy-1,5-naphthyridin-4-yl)oxy]phenyl]-6-methylpyridine-3-carboxamide] | ≤ 100 nM | ≤ 100 nM
13 | COc1cc2nccc(Oc3ccc(NC(=O)c4cn(CCF)c(C)c(C5=CCCCC5)c4=O)cc3F)c2nc1OC [Compound 8, 5-(Cyclohexen-1-yl)-N-[4-[(6,7-dimethoxy-1,5-naphthyridin-4-yl)oxy]-3-fluorophenyl]-1-(2-fluoroethyl)-6-methyl-4-oxopyridine-3-carboxamide] | ≤ 100 nM | ≤ 100 nM
14 | COc1cc2nccc(Oc3ccc(NC(=O)c4c(C)nc(C)c(C(C)C)c4O)cc3)c2nc1OC [Compound 9, N-[4-[(6,7-Dimethoxy-1,5-naphthyridin-4-yl)oxy]phenyl]-4-hydroxy-2,6-dimethyl-5-propan-2-ylpyridine-3-carboxamide] | ≤ 100 nM | ≤ 100 nM
15 | COc1cc2nccc(Oc3cc(F)c(NC(=O)c4c(C)nc(C)c(C(C)C)c4O)cc3F)c2nc1OC [Compound 10, N-[4-[(6,7-Dimethoxy-1,5-naphthyridin-4-yl)oxy]-2,5-difluorophenyl]-4-hydroxy-2,6-dimethyl-5-propan-2-ylpyridine-3-carboxamide] | ≤ 100 nM | ≤ 100 nM
